Experimental data published in patent US20070099970A1, “Immunomodulatory compounds that target and inhibit the pY'binding site of tyrosene kinase p56 LCK SH2 domain” (priority 2005, published 2007).

Biological target: T1, recombinant GST Lck SH2 domain fusion protein (Homo sapiens, UniProt P06239)
T1 construct: recombinant GST Lck SH2 domain fusion protein; made in house
Assay: solid phase EIA inhibition assay: binding of GST Lck SH2 domain to CD3 ζ chain ITAM 2 phosphopeptide
Conditions: assay example 1, stronger inhibitors >60% inhibition, weaker inhibitors <60% inhibition
Description: Compounds of the invention were obtained from commercial sources and were tested using a high-throughput Enzyme Immunoassay (EIA) developed to rapidly quantify inhibition.
Biological activities were measured using said EIA assay using 96 well medium binding EIA plates (Costar). Wells were coated with 100 μl of human CD3 ζ chain ITAM 2 phosphopeptide conjugated to BSA (˜10 pmole peptide equivalent) in PBS overnight at 4° C. and blocked with 300 μl of PBS containing 5% (wt/vol) powdered skim milk for 1 h at 37° C. After washing with PBS containing 1% Tween 20 (PBST), 3 times, 100 μl of precalibrated bacterial lysate containing recombinant GST Lck SH2 domain fusion protein was added in the presence or absence of test compounds and incubated for 1 h at room temperature. After 3 extensive washings with PBST, 100 μl of PBS containing HRP-conjugated rabbit anti-GST antibody was added and incubated for 1 h. After extensive washing with PBST, 100 μl of TMB substrate was added and absorbance at 620 nm was measured using a multiwell EIA plate reader (Anthos HTIII). The percent inhibition (% inhibition) was calculated based on the optical density (OD) using the formula: % inhibition=100−(ΔOD of test well/ΔOD of positive wells)×100, where ΔOD was calculated by subtracting background OD (average OD of negative wells) from the test as well as positive control wells. Error analysis was performed on two or more measurements.

T1 sequence (P06239 127-224 limits assumed): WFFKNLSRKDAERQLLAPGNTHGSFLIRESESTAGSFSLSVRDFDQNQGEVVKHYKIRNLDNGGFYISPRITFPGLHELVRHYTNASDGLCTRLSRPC

Compound | inhibitory activity, in words
Cc1cccc(NC(=O)CN2C(=O)S/C(=C\c3ccc(O)cc3)C2=O)c1 [276-6] | lower activity
COC(=O)c1ccc(-c2ccc(/C=C3\SC(=O)N(CC(=O)Nc4ccc(C)cc4)C3=O)o2)c(C)c1 [276-8] | weak inhibitors
Cc1ccc(NC(=O)CN2C(=O)S/C(=C\c3ccccc3O)C2=O)cc1 [276-11] | lowest activity among the highly active compounds

The next lines start with the values.

inhibitory activity, in words | Compound
stronger inhibitors | Cc1ccc(NC(=O)CN2C(=O)S/C(=C/c3ccc(-c4ccc(Cl)c(C(=O)O)c4)o3)C2=O)cc1 [276-13]
lower activity | Cc1ccc(NC(=O)CN2C(=O)S/C(=C\c3cccc(O)c3)C2=O)cc1 [276-14]
lower activity | Cc1ccc(NC(=O)CN2C(=O)S/C(=C\c3ccc(O)cc3)C2=O)cc1 [276-15]
